In patent US20100105641A1, “Oral Contraceptive Spray” (priority 2006, published 2010):

Assays:
[1] = Protocol: Solutions were prepared essentially according to the procedure as described in Example 1. The solubility of each one of the active ingredients desogestrel, 3-β-hydroxydesogestrel, 3-keto desogestrel and ethinyl estradiol in these solutions was tested.
[2] = human, in vivo
Protocol: Sixteen healthy female subjects were treated with 0.1 ml of the oral spray as described in Example 1 or with Marvelon® tablets (150 μg desogestrel, 30 μg ethinyl estradiol) in a cross over design. The spray was administered sublingually. Marvelon® was ingested. Serum concentration versus time profiles were obtained for etonogestrel and plasma concentration versus time profiles were obtained for ethinyl estradiol. FIGS. 2, 3, 4 and 5 show the average values of the serum/plasma concentrations versus time profiles.
This leads to the conclusion that a lower dose of either etonogestrel, or ethinyl estradiol, or both is possible for oral mucosal administration.

[3] = Cross-over study in sixteen healthy female subjects: sublingual oral spray (75 μg etonogestrel) vs ingested Cerazette tablets, serum concentration versus time profiles; assay type: in vivo, human; settings: FIGS. 6 and 7; 75 μg etonogestrel spray vs Cerazette tablet
Protocol: Sixteen healthy female subjects were treated with 0.1 ml of oral spray comprising the liquid as depicted in table 6 to administer 75 μg etonogestrel, or with Cerazette® tablets (75 μg desogestrel) in a cross over design. The spray has been administered sublingually. Cerazette® has been ingested. Serum concentration versus time profiles were obtained for etonogestrel.
This leads to the conclusion that a lower dose of either etonogestrel is possible for oral mucosal administration to achieve a similar pharmacological effect.

[4] = exposure of etonogestrel after oral ingestion as its prodrug desogestrel; cited from earlier work

**Q.** With `C#C[C@]1(O)CC[C@H]2[C@@H]3CCC4=C[C@@H](O)CC[C@@H]4[C@H]3C(=C)C[C@@]21CC` [3-β-Hydroxy-desogestrel, 3-β-hydroxydesogestrel] as the molecule, how does the “Solubility in Liquid 1” value [1] read?
**A.** Its value is “≧8.8 mg/mL”.

**Q.** What about the “Solubility in Liquid 2” value [1] of the same molecule?
**A.** The value was “≧7.0 mg/mL”.

**Q.** And the “Solubility in Liquid 3” value [1]?
**A.** The value was “≧6.1 mg/mL”.

**Q.** What about the “Solubility in Liquid 4” value [1] of the same molecule?
**A.** The value was “≧6.9 mg/mL”.

**Q.** What about the “Solubility in Liquid 5” value [1] of the same molecule?
**A.** Its value is “≧8.7 mg/mL”.

**Q.** For `C#C[C@]1(O)CC[C@H]2[C@@H]3CCc4cc(O)ccc4[C@H]3CC[C@@]21C` [Ethinyl Estradiol, ethinyl estradiol], which “levels of ethinyl estradiol in plasma, oral mucosal administration compared to oral ingestion of equivalent amount using a tablet” value [2] is on record?
**A.** Its value is “much higher levels”.

**Q.** For `C#C[C@]1(O)CC[C@H]2[C@@H]3CCC4=CC(=O)CC[C@@H]4[C@H]3C(=C)C[C@@]21CC` [Etonogestrel, 13-ethyl-11methylene-17β-hydroxy-18,19-dinor-17α-pregnen-3-one], which “levels of etonogestrel in serum, oral mucosal administration compared to oral ingestion of equivalent amount of desogestrel using a tablet” value [2] is on record?
**A.** The value was “much higher levels”.

**Q.** And the “levels of etonogestrel in serum, oral mucosal administration compared to oral ingestion of an equivalent amount of desogestrel using a tablet” value [3]?
**A.** The value was “much higher levels”.

**Q.** What about the oral bioavailability [4] of the same molecule?
**A.** Its oral bioavailability is “about 80%”.
